Results on one compound are retold here after patent US10500288B2, “Cytotoxic HEXIM1 peptides and uses thereof” (AGENCY FOR SCIENCE, TECHNOLOGY AND RESEARCH, priority 2015, dated 2019).

Peptide text beside a SMILES is read from it.

Data set [1] concerns human foreskin fibroblasts (HFF). The experiment in a line: Cell viability (Cell-Titer Glo) in human foreskin fibroblasts. Format: cell-based. To be noted: HFF normal fibroblasts; overnight, various concentrations. As to the method: Human cell lines including HeLa, HEK293, MCF7, MDA-MB-231, CHO-K1, OPM-2, and WI-38 were obtained from American Type Culture Collection. AML2 and AML3 cells were purchased from Deutsche Sammlung von Mikroorganismen und Zellkulturen. HCT116 p53+/+ and p53−/− cells were kindly given by Dr. Bert Vogelstein. Primary human foreskin fibroblasts (HFF) were obtained from Dr. Mark Stinski. […] MDA-MB-231 and OPM-2 cells were cultured in RPMI-1640 (Gibco) containing 10% FBS and 1% penicillin/streptomycin. All cells were routinely maintained in a 37° C. incubator with 5% CO2.
Cells were plated in clear-bottomed white walled 96-well plates (Corning) and incubated overnight. Cells were treated with indicated peptides in 1% FBS-containing media for overnight or indicated timings at 37° C. Cell viability was measured with CellTiter-Glo reagent (Promega) according to the manufacturer's instructions. For cytotoxicity assay, cells were plated in black walled 96-well plates (Corning) to allow them to adhere overnight. Upon treatment with a pan-caspase inhibitor, z-VAD-Fmk ([…]) (Sigma) and subsequent treatment with LTV-tagged peptides, cytotoxicity induced was determined by CellTox cytotoxicity assay (Promega) 30 minutes after addition of peptides according to the manufacturer's instructions. Luminescence was determined using an Infinite 200 multiplate reader (Tecan).

The test system of data set [2] is MCF7 cells. The experiment in a line: CellTox cytotoxicity assay with or without z-VAD-Fmk. It is filed as cell-based. Conditions: 30 μM, thirty minutes at 37° C. As to the method:
HCT116 (p53 WT) and HCT116 (p53 KO) cells were cultured on glass slides overnight, treated with vehicle control (0.5% dimethyl sulfoxide (DMSO)) or the indicated FGF peptides (30 μM). Time-lapse DIC imaging highlights dynamic morphological changes in treated HCT116 cells by spinning disk confocal microscopy. […] In contrast, FGF-BR peptide rapidly induces drastic changes to the cell morphology with rupturing of the plasma membrane accompanied with damages to the nuclear membrane and abnormalities to the nucleolus in both cell types. (B) cytotoxicity fluorescence plots of breast cancer cells MCF7 showing the effect of pan-caspase inhibitor z-VAD-Fmk on cells treated with LTV-tagged BR peptide. […] Data representative of at least three independent experiments performed in triplicate were shown with values expressed as mean±SD.
Cells were plated in clear-bottomed white walled 96-well plates (Corning) and incubated overnight. […] Cell viability was measured with CellTiter-Glo reagent (Promega) according to the manufacturer's instructions. […] Upon treatment with a pan-caspase inhibitor, z-VAD-Fmk ([…]) (Sigma) and subsequent treatment with LTV-tagged peptides, cytotoxicity induced was determined by CellTox cytotoxicity assay (Promega) 30 minutes after addition of peptides according to the manufacturer's instructions. Luminescence was determined using an Infinite 200 multiplate reader (Tecan).

Take `CC(C)C[C@H](NC(=O)[C@H](CCC(N)=O)NC(=O)CNC(=O)[C@H](CS)NC(=O)CNC(=O)[C@H](Cc1ccc(O)cc1)NC(=O)[C@H](Cc1c[nH]c2ccccc12)NC(=O)[C@@H]1CCCN1C(=O)[C@H](CO)NC(=O)[C@@H](NC(=O)[C@@H](NC(=O)[C@@H](N)CC(C)C)[C@@H](C)O)C(C)C)C(=O)NCC(=O)N[C@@H](CCCCN)C(=O)N[C@@H](CCCCN)C(=O)N[C@@H](CCCCN)C(=O)N[C@@H](Cc1c[nH]cn1)C(=O)N[C@@H](CCCNC(=N)N)C(=O)N[C@@H](CCCNC(=N)N)C(=O)N[C@@H](CCCNC(=N)N)C(=O)N1CCC[C@H]1C(=O)N[C@@H](CO)C(=O)N[C@@H](CCCCN)C(=O)N[C@@H](CCCCN)C(=O)N[C@@H](CCCCN)C(=O)N[C@@H](CCCNC(=N)N)C(=O)N[C@@H](Cc1c[nH]cn1)C(=O)N[C@@H](Cc1c[nH]c2ccccc12)C(=O)O` [LTV-BR] (H-LTVSPWYGCGQLGKKKHRRRPSKKKRHW-OH): in data set [1], the “cytotoxicity (cell viability)” value is on record as “does not show such non-specific cytotoxicity”. Further, in data set [2], the cytotoxicity fluorescence entry is recorded as “significant cytotoxic effect”.
